Legend:
[1] = target: GDP-bound HRAS wild-type protein (Homo sapiens, UniProt P01112); test: Binding to HRAS by surface plasmon resonance (SPR), Single Cycle Kinetics; conditions: KD ratio, GDP-bound HRAS wild-type vs GDP-bound KRAS wild-type, SPR
[2] = target: GDP-bound NRAS wild-type protein (Homo sapiens, UniProt P01111); test: Binding to NRAS by surface plasmon resonance (SPR), Single Cycle Kinetics; conditions: KD ratio, GDP-bound NRAS wild-type vs GDP-bound KRAS wild-type, SPR
GDP-bound NRAS wild-type protein, sequence (P01111 whole entry): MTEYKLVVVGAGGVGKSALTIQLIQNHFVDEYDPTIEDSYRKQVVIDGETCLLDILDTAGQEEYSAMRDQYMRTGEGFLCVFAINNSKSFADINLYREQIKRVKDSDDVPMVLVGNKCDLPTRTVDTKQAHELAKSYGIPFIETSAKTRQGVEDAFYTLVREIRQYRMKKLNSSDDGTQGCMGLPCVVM

GDP-bound HRAS wild-type protein, sequence (P01112 whole entry): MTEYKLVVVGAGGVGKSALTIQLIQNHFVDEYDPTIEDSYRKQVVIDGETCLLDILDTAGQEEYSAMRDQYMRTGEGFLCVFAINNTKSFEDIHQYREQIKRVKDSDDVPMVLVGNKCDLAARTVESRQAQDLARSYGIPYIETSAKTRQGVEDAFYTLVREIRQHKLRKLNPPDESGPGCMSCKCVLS

CCCO[C@@H]1CCN2C(=O)[C@H](CCc3cc(F)c(C(F)(F)F)c(F)c3)NC(=O)CN(C)C(=O)[C@H](Cc3ccc(C(F)(F)F)cc3)N3CCCCC[C@@H](C3=O)N(C)C(=O)CN(C)C(=O)[C@H]([C@@H](C)CC)NC(=O)[C@H](CC(C)C)N(C)C(=O)C[C@@H](C(=O)N3CCOCC3)N(C)C(=O)[C@H](C3CCCC3)N(C)C(=O)C3(CCC3)NC(=O)[C@H]12 [PP1083]
HRAS/KRAS (ratio of KD value with respect to HRAS to KD value with respect to KRAS) [1]: B (a compound having 3 or more and less than 10 is denoted as B)
NRAS/KRAS (ratio of KD value with respect to NRAS to KD value with respect to KRAS) [2]: B (a compound having 3 or more and less than 10 is denoted as B)

CC[C@H](C)[C@@H]1NC(=O)[C@H](CC(C)C)N(C)C(=O)C[C@@H](C(=O)N2CCOCC2)N(C)C(=O)[C@H](C2CCCC2)N(C)C(=O)C2(CCC2)NC(=O)[C@@H]2[C@H](OC)CCN2C(=O)[C@H](CCc2cc(F)c(C(F)(F)F)c(F)c2)NC(=O)CN(C)C(=O)[C@H](Cc2ccc(C(F)(F)F)cc2)N2CCCC[C@@H](C2=O)N(C)C(=O)CN(C)C1=O [PP1084]
HRAS/KRAS (ratio of KD value with respect to HRAS to KD value with respect to KRAS) [1]: B (a compound having 3 or more and less than 10 is denoted as B)
NRAS/KRAS (ratio of KD value with respect to NRAS to KD value with respect to KRAS) [2]: C (A compound having a KD ratio of 0.1 or more and less than 3 is denoted as C)

CCO[C@@H]1C[C@H]2C(=O)NC3(CCC3)C(=O)N(C)[C@@H](C3CCCCC3)C(=O)N(C)[C@H](C(=O)N(C)C)CC(=O)N(C)[C@@H](CC)C(=O)N[C@@H]([C@@H](C)CC)C(=O)N(C)CC(=O)N(C)[C@H]3C/C=C\CCN(C3=O)[C@@H](Cc3ccc(C(F)(F)F)cc3)C(=O)N(C)CC(=O)N[C@@H](CCc3cc(F)c(C(F)(F)F)c(F)c3)C(=O)N2C1 [PP1086]
HRAS/KRAS (ratio of KD value with respect to HRAS to KD value with respect to KRAS) [1]: A (a compound having 10 or more and less than 20 is denoted as A)
NRAS/KRAS (ratio of KD value with respect to NRAS to KD value with respect to KRAS) [2]: AA (a compound having 20 or more is denoted as AA)

CCO[C@@H]1C[C@H]2C(=O)NC3(CCC3)C(=O)N(C)[C@@H]([C@@H](C)CC)C(=O)N(C)[C@H](C(=O)N(C)C)CC(=O)N(C)[C@@H](CC)C(=O)N[C@@H]([C@@H](C)CC)C(=O)N(C)CC(=O)N(C)[C@H]3C/C=C\CCN(C3=O)[C@@H](Cc3ccc(C(F)(F)F)cc3)C(=O)N(C)CC(=O)N[C@@H](CCc3cc(F)c(C(F)(F)F)c(F)c3)C(=O)N2C1 [PP1087]
HRAS/KRAS (ratio of KD value with respect to HRAS to KD value with respect to KRAS) [1]: A (a compound having 10 or more and less than 20 is denoted as A)
NRAS/KRAS (ratio of KD value with respect to NRAS to KD value with respect to KRAS) [2]: A (a compound having 10 or more and less than 20 is denoted as A)

CCO[C@@H]1C[C@H]2C(=O)NC3(CCC3)C(=O)N(C)[C@@H](C(C)C)C(=O)N(C)[C@H](C(=O)N(C)C)CC(=O)N(C)[C@@H](CC)C(=O)N[C@@H]([C@@H](C)CC)C(=O)N(C)CC(=O)N(C)[C@H]3C/C=C\CCN(C3=O)[C@@H](Cc3ccc(C(F)(F)F)cc3)C(=O)N(C)CC(=O)N[C@@H](CCc3cc(F)c(C(F)(F)F)c(F)c3)C(=O)N2C1 [PP1088]
HRAS/KRAS (ratio of KD value with respect to HRAS to KD value with respect to KRAS) [1]: A (a compound having 10 or more and less than 20 is denoted as A)
NRAS/KRAS (ratio of KD value with respect to NRAS to KD value with respect to KRAS) [2]: A (a compound having 10 or more and less than 20 is denoted as A)

CCO[C@@H]1C[C@H]2C(=O)NC3(CCC3)C(=O)N(C)[C@@H](CC(C)C)C(=O)N(C)[C@H](C(=O)N(C)C)CC(=O)N(C)[C@@H](CC)C(=O)N[C@@H]([C@@H](C)CC)C(=O)N(C)CC(=O)N(C)[C@H]3C/C=C\CCN(C3=O)[C@@H](Cc3ccc(C(F)(F)F)cc3)C(=O)N(C)CC(=O)N[C@@H](CCc3cc(F)c(C(F)(F)F)c(F)c3)C(=O)N2C1 [PP1089]
HRAS/KRAS (ratio of KD value with respect to HRAS to KD value with respect to KRAS) [1]: A (a compound having 10 or more and less than 20 is denoted as A)
NRAS/KRAS (ratio of KD value with respect to NRAS to KD value with respect to KRAS) [2]: AA (a compound having 20 or more is denoted as AA)

CCO[C@@H]1C[C@H]2C(=O)NC3(CCC3)C(=O)N(C)[C@@H](C3CCCC3)C(=O)N(C)[C@H](C(=O)N3CCCC3)CC(=O)N(C)[C@@H](CC)C(=O)N[C@@H]([C@@H](C)CC)C(=O)N(C)CC(=O)N(C)[C@H]3C/C=C\CCN(C3=O)[C@@H](Cc3ccc(C(F)(F)F)cc3)C(=O)N(C)CC(=O)N[C@@H](CCc3cc(F)c(C(F)(F)F)c(F)c3)C(=O)N2C1 [PP1090]
HRAS/KRAS (ratio of KD value with respect to HRAS to KD value with respect to KRAS) [1]: A (a compound having 10 or more and less than 20 is denoted as A)
NRAS/KRAS (ratio of KD value with respect to NRAS to KD value with respect to KRAS) [2]: AA (a compound having 20 or more is denoted as AA)

CCO[C@@H]1C[C@H]2C(=O)NC3(CCC3)C(=O)N(C)[C@@H](C3CCCC3)C(=O)N(C)[C@H](C(=O)N3CCC3)CC(=O)N(C)[C@@H](CC)C(=O)N[C@@H]([C@@H](C)CC)C(=O)N(C)CC(=O)N(C)[C@H]3C/C=C\CCN(C3=O)[C@@H](Cc3ccc(C(F)(F)F)cc3)C(=O)N(C)CC(=O)N[C@@H](CCc3cc(F)c(C(F)(F)F)c(F)c3)C(=O)N2C1 [PP1091]
HRAS/KRAS (ratio of KD value with respect to HRAS to KD value with respect to KRAS) [1]: B (a compound having 3 or more and less than 10 is denoted as B)
NRAS/KRAS (ratio of KD value with respect to NRAS to KD value with respect to KRAS) [2]: A (a compound having 10 or more and less than 20 is denoted as A)

CCO[C@@H]1C[C@H]2C(=O)NC3(CCC3)C(=O)N(C)[C@@H](C3CCCC3)C(=O)N(C)[C@H](C(=O)N3CCOCC3)CC(=O)N(C)[C@@H](CC)C(=O)N[C@@H]([C@@H](C)CC)C(=O)N(C)CC(=O)N(C)[C@H]3C/C=C\CCN(C3=O)[C@@H](Cc3ccc(C(F)(F)F)cc3)C(=O)N(C)CC(=O)N[C@@H](CCc3cc(F)c(C(F)(F)F)c(F)c3)C(=O)N2C1 [PP1092]
HRAS/KRAS (ratio of KD value with respect to HRAS to KD value with respect to KRAS) [1]: A (a compound having 10 or more and less than 20 is denoted as A)
NRAS/KRAS (ratio of KD value with respect to NRAS to KD value with respect to KRAS) [2]: A (a compound having 10 or more and less than 20 is denoted as A)

CCO[C@@H]1C[C@H]2C(=O)NC3(CCC3)C(=O)N(C)[C@@H](C3CCCC3)C(=O)N(C)[C@H](C(=O)N3C4CCC3COC4)CC(=O)N(C)[C@@H](CC)C(=O)N[C@@H]([C@@H](C)CC)C(=O)N(C)CC(=O)N(C)[C@H]3C/C=C\CCN(C3=O)[C@@H](Cc3ccc(C(F)(F)F)cc3)C(=O)N(C)CC(=O)N[C@@H](CCc3cc(F)c(C(F)(F)F)c(F)c3)C(=O)N2C1 [PP1093]
HRAS/KRAS (ratio of KD value with respect to HRAS to KD value with respect to KRAS) [1]: A (a compound having 10 or more and less than 20 is denoted as A)
NRAS/KRAS (ratio of KD value with respect to NRAS to KD value with respect to KRAS) [2]: AA (a compound having 20 or more is denoted as AA)

CCO[C@@H]1C[C@H]2C(=O)NC3(CCC3)C(=O)N(C)[C@@H](C3CCCC3)C(=O)N[C@H](C(=O)N(C)C)CC(=O)N(C)[C@@H](CC)C(=O)N[C@@H]([C@@H](C)CC)C(=O)N(C)CC(=O)N(C)[C@H]3C/C=C\CCN(C3=O)[C@@H](Cc3ccc(C(F)(F)F)cc3)C(=O)N(C)CC(=O)N[C@@H](CCc3cc(F)c(C(F)(F)F)c(F)c3)C(=O)N2C1 [PP1094]
HRAS/KRAS (ratio of KD value with respect to HRAS to KD value with respect to KRAS) [1]: B (a compound having 3 or more and less than 10 is denoted as B)
NRAS/KRAS (ratio of KD value with respect to NRAS to KD value with respect to KRAS) [2]: A (a compound having 10 or more and less than 20 is denoted as A)

CCO[C@@H]1C[C@H]2C(=O)NC3(CCC3)C(=O)N(C)[C@@H](C3CCCC3)C(=O)N(C)[C@H](C)CC(=O)N(C)[C@@H](CC)C(=O)N[C@@H]([C@@H](C)CC)C(=O)N(C)CC(=O)N(C)[C@H]3C/C=C\CCN(C3=O)[C@@H](Cc3ccc(C(F)(F)F)cc3)C(=O)N(C)CC(=O)N[C@@H](CCc3cc(F)c(C(F)(F)F)c(F)c3)C(=O)N2C1 [PP1095]
HRAS/KRAS (ratio of KD value with respect to HRAS to KD value with respect to KRAS) [1]: B (a compound having 3 or more and less than 10 is denoted as B)
NRAS/KRAS (ratio of KD value with respect to NRAS to KD value with respect to KRAS) [2]: B (a compound having 3 or more and less than 10 is denoted as B)

CCO[C@@H]1C[C@H]2C(=O)NC3(CCCC3)C(=O)N(C)[C@@H](C3CCCC3)C(=O)N(C)[C@H](C)CC(=O)N(C)[C@@H](CC(C)C)C(=O)N[C@@H]([C@@H](C)CC)C(=O)N(C)CC(=O)N(C)[C@H]3C/C=C\CCN(C3=O)[C@@H](Cc3ccc(C(F)(F)F)cc3)C(=O)N(C)CC(=O)N[C@@H](CCc3cc(F)c(C(F)(F)F)c(F)c3)C(=O)N2C1 [PP1096]
HRAS/KRAS (ratio of KD value with respect to HRAS to KD value with respect to KRAS) [1]: B (a compound having 3 or more and less than 10 is denoted as B)
NRAS/KRAS (ratio of KD value with respect to NRAS to KD value with respect to KRAS) [2]: B (a compound having 3 or more and less than 10 is denoted as B)

CCO[C@@H]1C[C@H]2C(=O)NC3(CCC3)C(=O)N(C)[C@@H](C3CCCC3)C(=O)N3CCC[C@@H]3CC(=O)N(C)[C@@H](CC)C(=O)N[C@@H]([C@@H](C)CC)C(=O)N(C)CC(=O)N(C)[C@H]3C/C=C\CCN(C3=O)[C@@H](Cc3ccc(C(F)(F)F)cc3)C(=O)N(C)CC(=O)N[C@@H](CCc3cc(F)c(C(F)(F)F)c(F)c3)C(=O)N2C1 [PP1097]
HRAS/KRAS (ratio of KD value with respect to HRAS to KD value with respect to KRAS) [1]: B (a compound having 3 or more and less than 10 is denoted as B)
NRAS/KRAS (ratio of KD value with respect to NRAS to KD value with respect to KRAS) [2]: B (a compound having 3 or more and less than 10 is denoted as B)

CCO[C@@H]1C[C@H]2C(=O)NC3(CCC3)C(=O)N(C)[C@@H](C3CCCC3)C(=O)N[C@H](C)CC(=O)N(C)[C@@H](CC)C(=O)N[C@@H]([C@@H](C)CC)C(=O)N(C)CC(=O)N(C)[C@H]3C/C=C\CCN(C3=O)[C@@H](Cc3ccc(C(F)(F)F)cc3)C(=O)N(C)CC(=O)N[C@@H](CCc3cc(F)c(C(F)(F)F)c(F)c3)C(=O)N2C1 [PP1098]
HRAS/KRAS (ratio of KD value with respect to HRAS to KD value with respect to KRAS) [1]: B (a compound having 3 or more and less than 10 is denoted as B)
NRAS/KRAS (ratio of KD value with respect to NRAS to KD value with respect to KRAS) [2]: B (a compound having 3 or more and less than 10 is denoted as B)

CCO[C@@H]1C[C@H]2C(=O)NC3(CCC3)C(=O)N(C)[C@@H](C3CCCC3)C(=O)N(C)[C@H](C)CC(=O)N(C)[C@@H](CC(C)C)C(=O)N[C@@H]([C@@H](C)CC)C(=O)N(C)CC(=O)N(C)[C@H]3C/C=C\CCN(C3=O)[C@@H](Cc3ccc(C(F)(F)F)cc3)C(=O)N(C)CC(=O)N[C@@H](CCc3cc(F)c(C(F)(F)F)c(F)c3)C(=O)N2C1 [PP1100]
HRAS/KRAS (ratio of KD value with respect to HRAS to KD value with respect to KRAS) [1]: B (a compound having 3 or more and less than 10 is denoted as B)
NRAS/KRAS (ratio of KD value with respect to NRAS to KD value with respect to KRAS) [2]: B (a compound having 3 or more and less than 10 is denoted as B)

Source: patent US20250230193A1, “CYCLIC COMPOUND HAVING SELECTIVE KRAS INHIBITORY EFFECT ON HRAS AND NRAS” (CHUGAI SEIYAKU KABUSHIKI KAISHA, priority 2022, published 2025)
